Assays:
[1] = tested on: pain threshold of rat's paw made edematous by yeast; test: Analgesic activity, Randall and Selitto (pain threshold of edematous rat paw); assay type: in vivo, male Wistar rats; settings: vs basal values
Experimental: It was evaluated according to the following methods: a. Randall and Selitto The pressure to be exerted on a rat's paw previously made edematous by injecting into the plantar zone 0.1 ml of 20% suspension of yeast until appearance of painful reaction was measured in mmHg. The pain threshold was determined 30 minutes before and 30, 60, 90 and 120 minutes after the administration of the substances under test. 10 Male Wistar rats weighing 170-190 g were used for each dosage level and the corresponding average values considered for each dose. The percentage increase of the pain threshold compared to the basal values is taken as the index of the analgesic activity.

[2] = tested on: hyperpyressia induced by yeast; test: Anti-piretic activity, hyperpyressia induced by yeast; assay type: in vivo, albino rabbits
Experimental: (§1) This was evaluated considering 2 kinds of hyperpyressia. Hyperpyressia induced by:
To albino rabbits, 1 ml/kg of a 0.2% aqueous suspension of yeast were injected intravenously. The rectal temperature was teken at the beginning of the experiment and 60 minutes after the treatment with the pyrogen agent. Immediately after taking the temperature the compounds under test were administered orally to the animals and the rectal temperatures thereof were subsequently measured after 30, 60, 120 and 180 minutes. 10 Animals were treated for each dose level. The difference between the temperatures taken in the animals treated and in the controls is and index of the antipyretic activity. The results obtained by performing the two methods cited above for the determination of the antipyretic activity are listed in Tables 4 and 5 respectively and evaluated as average value for each dose.

[3] = tested on: edema induced by carrageenin; test: Anti-inflammatory activity, Winter's method (carrageenin edema); assay type: in vivo, male rats; settings: 3 hours after carrageenin
Experimental: This was determined according to Winter's method which evaluates the inhibiting effect on the edema induced by carrageenin.
Male rats weighing 170-190 g were treated with the compounds under test and after 60 minutes 0.005 ml of a 1% aqueous solution of carrageenin were injected into the plantar zone of a hind paw of each animal. The volume of the treated paw was determined immediately after the injection and 3 hours later.
10 Animals were used for each dosage level. The increase difference in the volume of the paw of animals treated compared with the controls represents the index of the anti-inflammatory activity. The results obtained, expressed as percentage inhibition of the volume of the edema compared to the controls and evaluated as average value for each dose are listed in Table 3.

[4] = tested on: abdominal stretching induced by phenylbenzoquinone; test: Analgesic activity, Siegmund (phenylbenzoquinone abdominal stretching); assay type: in vivo, Swiss male mice; settings: salts' dosage expressed as acid, vs water controls
Experimental: It was evaluated according to the following methods:
The antagonism towards the abdominal stretching induced by phenylbenzoquinone was evaluated. Swiss male mice weighing 19-21 g were treated orally with the compounds under examination 30 minutes before the endoperitoneal administration of 0.25 ml of a […] aqueous phenylbenzoquinone solution. The animals were kept under observation for 30 minutes after treatment with phenylbenzoquinone and the abdominal stretchings for each animal were counted. 10 Mice for each dosage level were used and the corresponding average values considered. The percentage decrease of the number of abdominal stretchings in the animals treated with the substances under test compared with the controls treated with water was taken as the index of the analgesic activity.

[5] = tested on: hyperpyressia induced by bactopeptone; test: Anti-piretic activity, hyperpyressia induced by bactopeptone; assay type: in vivo, Wistar male rats
Experimental: as §1
1 Milliliter of 5% aqueous solution of bactopeptone preincubated for 18 hours at 37°C were injected subcutaneously in Wistar male rats weighing 170-190 g. 4 Hours after treatment with the pyrogen, the animals were divided into groups of ten animals each and treated orally with the substances under examination. The rectal temperature was taken at the beginning of the test, 4 hours after the injection of the pyrogen agent and subsequently 1, 2 and 3 hours after the administration of the substances under test. The difference between the temperature taken in the treated animals and in controls is an index of the anti-pyretic activity.

[6] = 25 mg/kg i.p., salts' dosage expressed as acid
[7] = 25 mg/kg os, salts' dosage expressed as acid
[8] = 50 mg/kg i.p., salts' dosage expressed as acid
[9] = 50 mg/kg os, salts' dosage expressed as acid
[10] = 5 mg/kg i.p., salts' dosage expressed as acid
[11] = 10 mg/kg os, salts' dosage expressed as acid
[12] = 15 mg/kg os, salts' dosage expressed as acid

## C=CCOc1ccc(CC(=O)O)cc1Cl [4-allyloxy-3-chlorophenylacetic acid, reference compound]
[1]; [6]
  % Increase of pain threshold: 7%
[1]; [7]
  % Increase of pain threshold: 15%
[1]; [8]
  % Increase of pain threshold: 30%
[1]; [9]
  % Increase of pain threshold: 57%
[1]; 100 mg/kg i.p.
  % Increase of pain threshold: 93%
[1]; 100 mg/kg os
  % Increase of pain threshold: 92%
[2]; 10 mg/kg per os
  Rectal temperature, 30 mins. after treatment: 40.30 °C
  Rectal temperature, 60 mins. after treatment: 40.13 °C
  Rectal temperature, 120 mins. after treatment: 40.06 °C
  Rectal temperature, 180 mins. after treatment: 40.03 °C
[2]; 25 mg/kg per os
  Rectal temperature, 30 mins. after treatment: 40.35 °C
  Rectal temperature, 60 mins. after treatment: 39.85 °C
  Rectal temperature, 120 mins. after treatment: 39.30 °C
  Rectal temperature, 180 mins. after treatment: 39.25 °C
[3]; 2.5 mg/kg i.p.
  % Inhibition of oedema: 0%
[3]; [10]
  % Inhibition of oedema: 10%
[3]; [11]
  % Inhibition of oedema: 18%
[3]; [6]
  % Inhibition of oedema: 25%
[3]; [8]
  % Inhibition of oedema: 57%
[3]; [9]
  % Inhibition of oedema: 34%
[4]; 25 mg/kg os
  % Decrease in number of stretchings: 27%
[4]; 50 mg/kg os
  % Decrease in number of stretchings: 58%
[4]; 100 mg/kg os
  % Decrease in number of stretchings: 96%
[5]; [12]
  Rectal temperature, 1 hour after treatment: 38.2 °C
  Rectal temperature, 2 hours after treatment: 38.7 °C
  Rectal temperature, 3 hours after treatment: 38.4 °C
[5]; [7]
  Rectal temperature, 1 hour after treatment: 37.6 °C
  Rectal temperature, 2 hours after treatment: 38.4 °C
  Rectal temperature, 3 hours after treatment: 38.5 °C
[5]; 50 mg/kg os
  Rectal temperature, 1 hour after treatment: 37.7 °C
  Rectal temperature, 2 hours after treatment: 37.5 °C
  Rectal temperature, 3 hours after treatment: 37.7 °C

## O=C(O)Cc1ccc(OCC2CC2)c(Cl)c1 [DL-lysine 4-cyclopropylmethyleneoxy-3-chlorophenylacetate]
[1]; [6]
  % Increase of pain threshold: 83%
[1]; [7]
  % Increase of pain threshold: 30%
[1]; [8]
  % Increase of pain threshold: 103%
[1]; [9]
  % Increase of pain threshold: 104%
[3]; [10]
  % Inhibition of oedema: 38%
[3]; [11]
  % Inhibition of oedema: 41%
[3]; [6]
  % Inhibition of oedema: 64%
[3]; [9]
  % Inhibition of oedema: 81%
[4]; 25 mg/kg os
  % Decrease in number of stretchings: 60%
[4]; 50 mg/kg os
  % Decrease in number of stretchings: 90%
[4]; 100 mg/kg os
  % Decrease in number of stretchings: 100%
[5]; [12]
  Rectal temperature, 1 hour after treatment: 37.6 °C
  Rectal temperature, 2 hours after treatment: 38.0 °C
  Rectal temperature, 3 hours after treatment: 37.8 °C
[5]; [7]
  Rectal temperature, 1 hour after treatment: 37.4 °C
  Rectal temperature, 2 hours after treatment: 37.0 °C
  Rectal temperature, 3 hours after treatment: 36.7 °C

## O=C([O-])Cc1ccc(OCC2CC2)c(Cl)c1.O=C([O-])Cc1ccc(OCC2CC2)c(Cl)c1.[Cu+2] [copper 4-cyclopropylmethyleneoxy-3-chlorophenylacetate]
[1]; [6]
  % Increase of pain threshold: 67%
[1]; [7]
  % Increase of pain threshold: 62%
[1]; [8]
  % Increase of pain threshold: 121%
[1]; [9]
  % Increase of pain threshold: 116%
[3]; [10]
  % Inhibition of oedema: 32%
[3]; [11]
  % Inhibition of oedema: 38%
[3]; [6]
  % Inhibition of oedema: 51%
[3]; [8]
  % Inhibition of oedema: 61%
[3]; [9]
  % Inhibition of oedema: 71%
[4]; 25 mg/kg os
  % Decrease in number of stretchings: 50%
[4]; 50 mg/kg os
  % Decrease in number of stretchings: 81%
[4]; 100 mg/kg os
  % Decrease in number of stretchings: 99%
[5]; [12]
  Rectal temperature, 1 hour after treatment: 38.1 °C
  Rectal temperature, 2 hours after treatment: 37.7 °C
  Rectal temperature, 3 hours after treatment: 36.7 °C
[5]; [7]
  Rectal temperature, 1 hour after treatment: 37.8 °C
  Rectal temperature, 2 hours after treatment: 37.2 °C
  Rectal temperature, 3 hours after treatment: 36.6 °C

## CCCCC1C(=O)N(c2ccccc2)N(c2ccccc2)C1=O [phenylbutazone, 4-butyl-1,2-diphenyl-3,5-dioxopyrazoline, reference compound]
[1]; [6]
  % Increase of pain threshold: 3%
[1]; [7]
  % Increase of pain threshold: 33%
[1]; [8]
  % Increase of pain threshold: 42%
[1]; [9]
  % Increase of pain threshold: 94%
[3]; 2.5 mg/kg i.p.
  % Inhibition of oedema: 0%
[3]; [10]
  % Inhibition of oedema: 3%
[3]; [11]
  % Inhibition of oedema: 0%
[3]; [6]
  % Inhibition of oedema: 22%
[3]; [8]
  % Inhibition of oedema: 55%
[3]; [9]
  % Inhibition of oedema: 28%
[4]; 25 mg/kg os
  % Decrease in number of stretchings: 3%
[4]; 50 mg/kg os
  % Decrease in number of stretchings: 65%
[4]; 100 mg/kg os
  % Decrease in number of stretchings: 98%
[5]; [12]
  Rectal temperature, 1 hour after treatment: 38.3 °C
  Rectal temperature, 2 hours after treatment: 38.8 °C
  Rectal temperature, 3 hours after treatment: 38.6 °C
[5]; [7]
  Rectal temperature, 1 hour after treatment: 38.1 °C
  Rectal temperature, 2 hours after treatment: 38.9 °C
  Rectal temperature, 3 hours after treatment: 38.3 °C
[5]; 100 mg/kg os
  Rectal temperature, 1 hour after treatment: 38.1 °C
  Rectal temperature, 2 hours after treatment: 37.6 °C
  Rectal temperature, 3 hours after treatment: 37.4 °C

From patent US3976673A, “4-Cyclopropylmethyleneoxy-3-chlorophenylacetic acid and salts thereof” (priority 1974, dated 1976)
